Measurements published in patent US4567169A, “Nitrosourea substituted phosphonates and pharmaceutical use” (priority 1982, dated 1986).

Assays:
[1] = test system: pyruvic glutamic transaminase; experiment: hepatic toxicity (Wroblewski's method), pyruvic glutamic transaminase activity in serum; assay type: in vivo, Long Evans rats
Experimental: The hepatic toxicity is assessed according to Wroblewski's method by measuring the pyruvic glutamic transaminase activity contained in the serum from Long Evans rats treated with an intraperitoneal injection of 25 mg/kg of BCNU or with equipotential doses of the compounds according to the invention.

[2] = test system: tumour-bearing mice (tumorous cells inoculated by intraperitoneal or intramuscular route); experiment: capacity to increase the life-span of mice bearing tumorous cells (NCI protocols, Geran et al.); assay type: in vivo; details: 5 mg/kg
Experimental: The compounds according to the invention are tested by their capacity to increase the life-span of mice bearing tumorous cells inoculated by intraperitoneal or intramuscular route in accordance with the protocols edicted by the National Cancer Institute (U.S.A.) and published by R. I. GERAN et al. in Cancer Chemotherapy Reports 1972, part III, Vol. 3 (2), 1-87.
Given per os, these compounds increase the life-span of tumor-bearing animals. The rate of effectiveness of the active doses per os over the active dose by intraperitoneal route is greater for the compounds according to the invention than for the reference products (F. SPREAFICO et al. in Nitrosoureas: current status and new developments, A. W. PRESTAYKO et al. editors, 1981, Academic Press (New York); Experimental Evaluation of Antitumor Drugs in the USA and USSR and clinical correlations; National Cancer Institute Monograph No. 55; National Institutes of Health USA 1980).

pulmonary metastases = experiment: antimetastatic capacity: reduction in number and weight of pulmonary metastases developed after intramuscular inoculation of carcinoma cells; assay type: in vivo; details: 10 mg/kg as a curative treatment for 9 days
Experimental: The antimetastatic capacity of the compounds of the present invention is measured by the reduction, compared with untreated animals, in the number and weight of pulmonary metastases developed after intramuscular inoculation of carcinoma cells.

Structure (SMILES)	hepatic toxicity ([1]; intraperitoneal injection of 25 mg/kg of BCNU or equipotential doses of the compounds)	long-term survivors [2]	formation of metastases (pulmonary metastases)	serum pyruvic glutamic transaminase level ([1]; 25 mg/kg, Long Evans rats)
O=NN(CCCl)C(=O)NCCCl [BCNU, N-N'-bis(2-chloroethyl)-N-nitrosourea, reference compound]	notable hepatic toxicity			
CCOP(=O)(OCC)C(C)NC(=O)N(CCCl)N=O (stereo not shown) [Example 4, 1-[N-(2-chloroethyl)-N-nitrosoureido]ethylphosphonic acid diethyl ester]		inducing long-term survivors	prevents the formation of metastases	does not lead to an increase in the enzyme level outside the range usually found in untreated rats
